From US12440535B2, “IL-4 derived peptide fragments for use in the treatment of diabetic nephropathy” (SERODUS APS, priority 2022, dated 2025)
Entries after “also recorded” stand apart in the source; their conditions may differ. Where no end group is shown, it is not given here. [ ]: non-standard residue; d: D form. βAla = NCCC(=O)O

Columns and labels:
IL-4 receptors = conditions: cited from earlier work
type II IL-4R = molecular target: T1, type II IL-4R (Homo sapiens, UniProt P24394); conditions: Klementiv 2013; cited from earlier work
T1 sequence (P24394 26-825): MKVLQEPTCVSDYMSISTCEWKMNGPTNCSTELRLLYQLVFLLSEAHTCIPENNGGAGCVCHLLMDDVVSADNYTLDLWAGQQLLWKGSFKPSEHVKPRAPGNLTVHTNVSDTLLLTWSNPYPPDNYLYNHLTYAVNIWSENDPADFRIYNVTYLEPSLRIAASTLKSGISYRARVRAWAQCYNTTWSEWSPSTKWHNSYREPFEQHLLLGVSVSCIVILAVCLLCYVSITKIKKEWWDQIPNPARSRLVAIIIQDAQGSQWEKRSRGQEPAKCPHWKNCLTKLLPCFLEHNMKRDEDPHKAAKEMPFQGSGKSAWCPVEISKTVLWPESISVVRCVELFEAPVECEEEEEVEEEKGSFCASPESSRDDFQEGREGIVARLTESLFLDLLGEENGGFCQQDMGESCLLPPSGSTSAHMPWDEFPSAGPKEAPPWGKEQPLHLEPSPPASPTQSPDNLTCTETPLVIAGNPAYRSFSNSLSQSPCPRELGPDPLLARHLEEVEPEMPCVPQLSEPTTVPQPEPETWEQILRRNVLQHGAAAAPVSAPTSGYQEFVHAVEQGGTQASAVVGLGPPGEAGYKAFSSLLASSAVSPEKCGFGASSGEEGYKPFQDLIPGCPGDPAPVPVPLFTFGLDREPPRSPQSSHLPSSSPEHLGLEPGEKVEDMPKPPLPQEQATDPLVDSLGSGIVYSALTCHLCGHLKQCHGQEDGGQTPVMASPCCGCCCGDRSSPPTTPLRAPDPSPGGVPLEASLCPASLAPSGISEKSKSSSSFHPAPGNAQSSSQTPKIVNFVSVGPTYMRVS

macrophages = conditions: cited from earlier work
type I IL-4R = molecular target: T2, type I IL-4R (Homo sapiens, UniProt P24394); conditions: Klementiv 2013; cited from earlier work
T2 sequence (P24394 26-825): T1 sequence (P24394 26-825)
T2 sequence (P31785 23-369 partner): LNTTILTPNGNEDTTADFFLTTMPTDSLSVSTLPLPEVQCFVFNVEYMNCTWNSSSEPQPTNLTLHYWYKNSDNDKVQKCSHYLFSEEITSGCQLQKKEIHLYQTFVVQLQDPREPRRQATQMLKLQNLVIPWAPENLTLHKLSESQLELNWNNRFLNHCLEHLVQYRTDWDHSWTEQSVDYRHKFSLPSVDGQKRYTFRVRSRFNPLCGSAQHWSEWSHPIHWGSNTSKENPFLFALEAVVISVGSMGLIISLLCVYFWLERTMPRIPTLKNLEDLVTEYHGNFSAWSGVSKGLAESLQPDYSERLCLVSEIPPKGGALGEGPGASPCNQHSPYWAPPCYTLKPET

ReninAAV UNx db/db mice = ReninAAV UNx db/db mice model of diabetic nephropathy, urine biomarkers; type: in vivo; conditions: 10 mg/kg subcutaneously once daily, compared to vehicle, spot urine at termination day 77
Method: 28 female mice (BKS.Cg-Dock7m+/+Lepradb/db BLKS, 5 weeks of age) were transferred to the Gubra Research animal unit. Throughout the habituation and study period, the animals were housed in a light-, temperature-, and humidity-controlled room with free access to food and water. All animal experiments were conducted in accordance with Gubra's bioethical guidelines, which are fully compliant with internationally accepted principles for the care and use of laboratory animals. The animals were group-housed until uni-nephrectomies, then single-housed.
The animals were terminated on day 77; blood was taken for later analysis, body weight was recorded, and spot urine was collected.
Compound A was provided by Phlogo ApS, Copenhagen, Denmark (10 mg/ml miliQ water diluted to the dose formulations). Compound A was provided as a dimeric peptide comprising two copies of the sequence AQFHRHKQLIRFLKRA (SEQ ID NO: 1). […]
Urine samples were stored at minus 80° C. until analysis. […] Urine albumin was measured using a commercial ELISA kit (Bethyl Laboratories, Inc.), according to the manufacturer's instructions, and urine creatinine was measured using a commercial kit (Roche Diagnostics) on the Cobas c 501 autoanalyzer, according to the manufacturer's instructions. Urinary KIM-1 was measured using a commercial ELISA kit (R&D Systems) according to the manufacturer's instructions.

| Substance | Binding to the IL-4 receptors (IL-4 receptors) | Mode of action on type II IL-4R (type II IL-4R) | Macrophage activation (macrophages) | Mode of action on type I IL-4R (type I IL-4R) | ACR (urinary albumin corrected for creatinine) (ReninAAV UNx db/db mice) | KIM-1/CR (urinary KIM-1 corrected for creatinine) (ReninAAV UNx db/db mice) |
| --- | --- | --- | --- | --- | --- | --- |
| AQFHRHKQLIRFLKRA [SEQ ID NO:1, IL-4 derived peptide, variant of AA71-AA86 of IL-4 with two amino acid substitutions] | capable of binding to the IL-4 receptors | antagonist | inhibiting macrophage activation | high affinity partial agonist | – | – |
| Compound A: dimer of SEQ ID NO:1 (AQFHRHKQLIRFLKRA), two copies connected via their C-terminal through a lysine-beta-alanine linker (AQFHRHKQLIRFLKRAK[βAla]; also: dimer of two copies joined at C-termini via lysine-beta-alanine linker, Rink amide) | – | – | – | – | significantly decreased; also recorded: significantly reduced | significantly decreased; also recorded: significantly reduced |
